Experimental data as given in ChEMBL document CHEMBL1201862, “PubChem BioAssay data set” (2004).
Calls of active or inactive are those of the source. Cut-off read from the data, not from the text of the source, for most assays here: actives have a measured EC50 and inactives only a lower limit.

Experiments:
[1] = molecular target: Protein disulfide-isomerase (Homo sapiens, UniProt P07237); assay: inhibition of PDI-driven insulin aggregation – biochemical, turbidity, absorbance, cherry-picked samples, dose response (AID 602350); assay type: functional
[2] = molecular target: T1, Heat shock factor protein 1 (Mus musculus, UniProt P38532); assay: enhancement of HSF1-driven luciferase signal – cell-based, NIH3T3, luminescence, dose retest, confirmation (AID 435004); assay type: functional;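 note: stress induced by proteasome inhibitor MG132 added 30 min after compound; luciferase reporter driven by HSF1 response element in NIH3T3 cells; actives raise luminescence as potentiators of the MG132 stress response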
T1 sequence (P38532 whole entry): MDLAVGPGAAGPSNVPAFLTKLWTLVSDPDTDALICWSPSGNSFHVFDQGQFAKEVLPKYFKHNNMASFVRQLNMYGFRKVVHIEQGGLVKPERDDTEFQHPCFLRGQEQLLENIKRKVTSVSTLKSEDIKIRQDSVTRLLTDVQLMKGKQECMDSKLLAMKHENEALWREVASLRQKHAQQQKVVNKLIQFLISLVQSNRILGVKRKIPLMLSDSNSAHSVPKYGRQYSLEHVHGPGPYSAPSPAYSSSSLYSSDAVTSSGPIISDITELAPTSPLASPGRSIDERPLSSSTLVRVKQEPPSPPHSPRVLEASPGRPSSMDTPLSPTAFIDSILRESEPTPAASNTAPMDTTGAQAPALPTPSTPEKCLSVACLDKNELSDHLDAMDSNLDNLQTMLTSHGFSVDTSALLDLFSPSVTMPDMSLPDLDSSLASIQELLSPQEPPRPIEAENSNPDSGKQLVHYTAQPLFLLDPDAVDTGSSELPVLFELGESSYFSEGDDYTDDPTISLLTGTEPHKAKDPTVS

[3] = molecular target: T2, Corticotropin-releasing factor receptor 2/Corticotropin-releasing factor-binding protein (Homo sapiens, UniProt P24387+Q13324); assay: activators of CRF receptor 2 with binding protein – uHTS hits, confirmation (AID 602473); assay type: functional; settings: read-out: EC50_Mean
T2 sequence (Q13324 whole entry): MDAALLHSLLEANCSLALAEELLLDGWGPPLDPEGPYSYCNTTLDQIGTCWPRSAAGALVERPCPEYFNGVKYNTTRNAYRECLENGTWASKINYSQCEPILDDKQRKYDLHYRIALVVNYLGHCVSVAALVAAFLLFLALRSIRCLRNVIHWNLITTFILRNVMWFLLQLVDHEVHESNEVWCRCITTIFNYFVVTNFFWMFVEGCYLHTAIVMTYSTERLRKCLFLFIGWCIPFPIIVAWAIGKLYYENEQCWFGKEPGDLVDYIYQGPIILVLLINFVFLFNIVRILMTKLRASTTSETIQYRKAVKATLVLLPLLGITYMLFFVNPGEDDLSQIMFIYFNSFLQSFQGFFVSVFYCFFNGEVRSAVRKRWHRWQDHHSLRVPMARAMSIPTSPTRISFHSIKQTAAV
T2 sequence (P24387 whole entry): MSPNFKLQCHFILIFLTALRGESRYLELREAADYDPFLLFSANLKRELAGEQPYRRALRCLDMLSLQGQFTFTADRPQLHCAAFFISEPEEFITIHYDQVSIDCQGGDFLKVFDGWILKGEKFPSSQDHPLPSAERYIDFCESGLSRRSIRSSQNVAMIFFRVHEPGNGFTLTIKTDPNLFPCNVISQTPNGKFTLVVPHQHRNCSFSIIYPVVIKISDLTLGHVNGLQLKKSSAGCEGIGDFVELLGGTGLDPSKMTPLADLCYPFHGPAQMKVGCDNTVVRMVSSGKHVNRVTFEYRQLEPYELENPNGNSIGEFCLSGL

[4] = tested on: Streptococcus sp. 'group A'; assay: Streptococcus pyogenes SK(-)GAS viability under kanamycin – luminescence, BacTiterGlo, confirmation, counter-screen for streptokinase expression inhibitor project, dose response (AID 1900); assay type: functional, organism-based
[5] = molecular target: T3, Carboxy-terminal domain RNA polymerase II polypeptide A small phosphatase 1 (Homo sapiens, UniProt Q9GZU7); assay: CTDSP1 inhibitors, concentration-response, biochemical, absorbance readout, ultra-high-throughput screen actives (AID 540297); assay type: functional
T3 sequence (Q9GZU7 whole entry): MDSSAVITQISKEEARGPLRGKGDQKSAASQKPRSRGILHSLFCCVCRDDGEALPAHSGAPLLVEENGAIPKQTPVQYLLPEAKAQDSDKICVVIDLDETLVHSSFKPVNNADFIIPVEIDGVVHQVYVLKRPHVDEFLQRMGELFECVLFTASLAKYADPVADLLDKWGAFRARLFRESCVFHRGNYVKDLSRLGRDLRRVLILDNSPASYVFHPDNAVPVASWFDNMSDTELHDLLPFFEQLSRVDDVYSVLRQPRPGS

[6] = molecular target: DNA (cytosine-5)-methyltransferase 1 (Homo sapiens, UniProt P26358); assay: inhibition of DNA methylation by DNMT1 – biochemical, fluorescent molecular beacon, confirmation (AID 602386); assay type: functional
Streptococcus = assay: GAS UMAA2166 growth inhibition – luminescence, BacTiterGlo, counter-screen for streptokinase expression inhibitor project, dose response (AID 1915); assay type: functional, organism-based;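 note: potency for reduction of bacterial viability or growth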
Streptokinase A = molecular target: T4, Streptokinase A (Streptococcus pyogenes serotype M1, UniProt P10520); assay: viability-normalized secreted streptokinase activity reduction – plasminogen activation absorbance, OD405, dose response (AID 1914); assay type: functional, Streptococcus pyogenes M1 GAS;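 note: secreted streptokinase activity via plasminogen activation per viability signal from cell pellet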
T4 sequence (P10520 whole entry): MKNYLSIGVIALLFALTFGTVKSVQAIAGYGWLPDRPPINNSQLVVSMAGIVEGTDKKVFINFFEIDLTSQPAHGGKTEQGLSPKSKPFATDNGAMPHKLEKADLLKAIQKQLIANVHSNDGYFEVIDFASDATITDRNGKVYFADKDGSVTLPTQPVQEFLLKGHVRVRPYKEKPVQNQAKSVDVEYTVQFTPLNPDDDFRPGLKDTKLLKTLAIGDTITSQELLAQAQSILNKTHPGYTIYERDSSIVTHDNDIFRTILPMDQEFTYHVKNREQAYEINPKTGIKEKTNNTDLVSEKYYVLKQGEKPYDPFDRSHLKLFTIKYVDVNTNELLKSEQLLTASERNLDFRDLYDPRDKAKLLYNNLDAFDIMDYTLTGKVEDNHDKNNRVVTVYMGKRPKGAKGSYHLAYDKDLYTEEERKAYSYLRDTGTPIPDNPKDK

[7] = alpha-synuclein stem-loop luciferase translation blockers – H4 neuroglioma cells, luminescence, confirmation (AID 1988); assay type: functional, cell-based
Beta Lactamase = Beta Lactamase (Pseudomonas aeruginosa, UniProt Q932Y6); assay: BLA reporter interference, concentration series – BLA reporter cells, FRET fluorescence, artefact control for TLR9-MyD88 binding inhibitor project, dose response (AID 588341); assay type: cell-based;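 note: cell based assay in CHO-K1 cells stably expressing beta-lactamase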
[8] = luciferase reporter signal suppression in cells – H4 neuroglioma cells, luminescence, dose response (AID 1990); assay type: functional, cell-based
Fatty acid synthase [9] = molecular target: T5, Fatty acid synthase (Homo sapiens, UniProt P49327); assay: inhibition of human FAS-TE enzyme activity – biochemical, kinetic fluorescence intensity, dose response (AID 624326); assay type: functional;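 note: rate of fluorescence rise from hydrolysis of a fluorogenic O-methyl fluorescein ester substrate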
[10] = Luminescence Cell-Based Dose Response HTS to Identify Inhibitors of 5'UTR Stem-Loop Driven Prion Protein mRNA Translation in H4 Neuroglioblastoma Cells. [Related pubchem assays: 1827 (Project Summary), 1813 (Primary HTS)]; assay type: functional
Fatty acid synthase [11] = molecular target: T5, Fatty acid synthase; assay: inhibition of human FAS-TE enzyme activity – biochemical, endpoint fluorescence intensity, uHTS hits, dose response (AID 624327); assay type: functional;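 note: fluorescence from hydrolysis of an O-methyl fluorescein acyl ester substrate by the enzyme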
CHO = CHO cell viability loss, potency – luminescence, cytotoxicity control for TLR9-MyD88 binding inhibitor project, dose response (AID 588339); assay type: functional, cell-based, hamster; settings: Cricetulus griseus;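 note: CHO cells stably coexpressing TLR9 and MyD88 fusions from primary screen; compound exposure lasted 48 hours before viability readout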
BJ [12] = assay: BJ-TERT-LT-ST fibroblast viability loss – cell-based, RAS-independent, luminescence, dose response (AID 1935); assay type: functional; settings: Homo sapiens;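 note: BJ fibroblasts immortalized with TERT plus LT and ST oncogenes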
[13] = DRD fibroblast viability loss – cell-based, non-viral oncogenic, luminescence, dose response (AID 1934); assay type: functional; settings: Homo sapiens
BJ [14] = assay: BJ-TERT fibroblast viability loss – cell-based, RAS-independent, luminescence, dose response (AID 1933); assay type: functional; settings: Homo sapiens
BJ [15] = assay: growth inhibition of engineered Ras-driven BJ cells – cell-based, alamar blue fluorescence, cherrypicked samples, dose response (AID 2631); assay type: functional; settings: Homo sapiens;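 note: confirmatory dose-response assay in RAS-dependent BJ fibroblasts engineered with TERT, LT and ST, with cytotoxicity read by fluorescence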
BJ [16] = assay: cells; assay type: functional, cell-based; settings: Homo sapiens

Protein disulfide-isomerase, sequence (P07237 whole entry): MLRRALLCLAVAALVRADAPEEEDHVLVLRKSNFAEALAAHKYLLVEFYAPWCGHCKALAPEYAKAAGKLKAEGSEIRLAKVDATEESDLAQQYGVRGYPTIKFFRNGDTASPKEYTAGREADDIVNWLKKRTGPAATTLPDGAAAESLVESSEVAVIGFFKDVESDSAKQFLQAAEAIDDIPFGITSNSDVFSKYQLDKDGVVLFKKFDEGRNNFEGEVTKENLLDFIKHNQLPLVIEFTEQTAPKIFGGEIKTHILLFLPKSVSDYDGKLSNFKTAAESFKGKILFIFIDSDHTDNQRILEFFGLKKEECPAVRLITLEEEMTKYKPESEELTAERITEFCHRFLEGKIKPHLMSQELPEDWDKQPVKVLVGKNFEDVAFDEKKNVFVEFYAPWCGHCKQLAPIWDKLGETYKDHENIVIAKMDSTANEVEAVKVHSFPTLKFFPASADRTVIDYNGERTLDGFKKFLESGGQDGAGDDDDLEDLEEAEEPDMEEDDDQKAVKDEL
T5 sequence (P49327 whole entry): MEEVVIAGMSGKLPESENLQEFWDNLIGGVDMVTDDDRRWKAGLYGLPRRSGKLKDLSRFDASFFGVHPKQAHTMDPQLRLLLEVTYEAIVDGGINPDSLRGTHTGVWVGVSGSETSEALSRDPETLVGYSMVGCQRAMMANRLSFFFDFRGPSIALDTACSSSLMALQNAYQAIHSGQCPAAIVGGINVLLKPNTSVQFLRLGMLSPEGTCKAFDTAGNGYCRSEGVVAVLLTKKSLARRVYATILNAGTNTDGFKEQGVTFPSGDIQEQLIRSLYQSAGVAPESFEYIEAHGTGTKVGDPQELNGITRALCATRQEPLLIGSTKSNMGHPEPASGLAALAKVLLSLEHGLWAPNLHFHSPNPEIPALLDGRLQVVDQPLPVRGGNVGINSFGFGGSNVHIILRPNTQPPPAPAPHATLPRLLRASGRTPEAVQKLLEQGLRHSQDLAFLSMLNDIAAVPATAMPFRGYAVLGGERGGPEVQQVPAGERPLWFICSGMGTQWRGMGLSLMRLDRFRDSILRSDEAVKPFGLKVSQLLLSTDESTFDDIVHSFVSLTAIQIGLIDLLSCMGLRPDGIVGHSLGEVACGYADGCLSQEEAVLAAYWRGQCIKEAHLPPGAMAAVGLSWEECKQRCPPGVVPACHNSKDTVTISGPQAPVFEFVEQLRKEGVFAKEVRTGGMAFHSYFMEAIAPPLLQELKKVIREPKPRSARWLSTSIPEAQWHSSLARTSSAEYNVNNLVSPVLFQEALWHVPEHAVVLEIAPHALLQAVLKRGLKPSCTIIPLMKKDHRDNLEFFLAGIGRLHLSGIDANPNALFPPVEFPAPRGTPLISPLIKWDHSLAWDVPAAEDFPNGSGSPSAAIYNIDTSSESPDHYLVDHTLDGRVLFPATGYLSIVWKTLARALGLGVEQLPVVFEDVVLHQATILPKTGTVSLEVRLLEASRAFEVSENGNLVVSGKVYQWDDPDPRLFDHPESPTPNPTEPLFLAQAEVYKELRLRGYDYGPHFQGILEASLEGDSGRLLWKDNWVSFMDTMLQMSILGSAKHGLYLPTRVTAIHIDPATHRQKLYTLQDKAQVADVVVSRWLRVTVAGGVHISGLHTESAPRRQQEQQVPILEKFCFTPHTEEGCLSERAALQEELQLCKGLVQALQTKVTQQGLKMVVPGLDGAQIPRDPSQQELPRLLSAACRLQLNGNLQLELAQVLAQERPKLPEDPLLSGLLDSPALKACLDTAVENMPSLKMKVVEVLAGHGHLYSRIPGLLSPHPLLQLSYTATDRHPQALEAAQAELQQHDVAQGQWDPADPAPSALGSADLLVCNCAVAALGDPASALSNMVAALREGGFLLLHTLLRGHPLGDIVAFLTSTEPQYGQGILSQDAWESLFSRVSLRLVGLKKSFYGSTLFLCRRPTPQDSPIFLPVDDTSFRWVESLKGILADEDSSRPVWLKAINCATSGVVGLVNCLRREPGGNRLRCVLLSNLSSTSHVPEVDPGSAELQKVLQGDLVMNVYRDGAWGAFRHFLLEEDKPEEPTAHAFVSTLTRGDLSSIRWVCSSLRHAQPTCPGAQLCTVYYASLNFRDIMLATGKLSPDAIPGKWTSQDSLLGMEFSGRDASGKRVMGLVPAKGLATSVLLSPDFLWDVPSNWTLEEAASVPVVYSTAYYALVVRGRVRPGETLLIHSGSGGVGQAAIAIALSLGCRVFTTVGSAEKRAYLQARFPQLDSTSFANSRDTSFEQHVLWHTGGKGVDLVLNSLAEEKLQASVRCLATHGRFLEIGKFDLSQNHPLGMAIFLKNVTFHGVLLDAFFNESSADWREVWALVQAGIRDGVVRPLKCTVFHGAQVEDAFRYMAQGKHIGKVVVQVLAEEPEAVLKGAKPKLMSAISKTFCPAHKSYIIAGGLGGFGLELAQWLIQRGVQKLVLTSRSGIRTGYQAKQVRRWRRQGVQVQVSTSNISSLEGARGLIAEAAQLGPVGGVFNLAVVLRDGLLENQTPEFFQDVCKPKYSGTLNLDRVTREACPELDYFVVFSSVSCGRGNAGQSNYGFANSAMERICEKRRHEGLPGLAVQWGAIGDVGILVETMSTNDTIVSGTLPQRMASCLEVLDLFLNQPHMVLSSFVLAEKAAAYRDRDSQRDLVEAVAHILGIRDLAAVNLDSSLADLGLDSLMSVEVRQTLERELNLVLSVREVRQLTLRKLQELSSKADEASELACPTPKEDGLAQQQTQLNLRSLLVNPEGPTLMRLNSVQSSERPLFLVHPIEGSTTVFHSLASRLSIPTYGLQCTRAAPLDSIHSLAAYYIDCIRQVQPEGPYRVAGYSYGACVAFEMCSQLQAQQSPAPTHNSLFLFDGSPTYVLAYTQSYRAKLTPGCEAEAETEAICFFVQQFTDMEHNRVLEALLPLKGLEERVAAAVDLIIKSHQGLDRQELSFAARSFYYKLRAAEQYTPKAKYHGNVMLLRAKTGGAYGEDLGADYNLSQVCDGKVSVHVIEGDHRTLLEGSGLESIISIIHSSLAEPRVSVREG
Beta Lactamase, sequence (Q932Y6 whole entry): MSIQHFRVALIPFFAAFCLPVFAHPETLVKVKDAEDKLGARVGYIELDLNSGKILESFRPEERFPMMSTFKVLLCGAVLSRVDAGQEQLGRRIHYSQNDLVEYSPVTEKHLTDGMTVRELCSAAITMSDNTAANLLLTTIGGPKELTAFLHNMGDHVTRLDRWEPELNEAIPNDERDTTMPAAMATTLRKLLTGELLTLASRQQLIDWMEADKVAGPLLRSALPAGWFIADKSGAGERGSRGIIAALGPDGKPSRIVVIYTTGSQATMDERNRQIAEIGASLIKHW
DNA (cytosine-5)-methyltransferase 1, sequence (P26358 whole entry): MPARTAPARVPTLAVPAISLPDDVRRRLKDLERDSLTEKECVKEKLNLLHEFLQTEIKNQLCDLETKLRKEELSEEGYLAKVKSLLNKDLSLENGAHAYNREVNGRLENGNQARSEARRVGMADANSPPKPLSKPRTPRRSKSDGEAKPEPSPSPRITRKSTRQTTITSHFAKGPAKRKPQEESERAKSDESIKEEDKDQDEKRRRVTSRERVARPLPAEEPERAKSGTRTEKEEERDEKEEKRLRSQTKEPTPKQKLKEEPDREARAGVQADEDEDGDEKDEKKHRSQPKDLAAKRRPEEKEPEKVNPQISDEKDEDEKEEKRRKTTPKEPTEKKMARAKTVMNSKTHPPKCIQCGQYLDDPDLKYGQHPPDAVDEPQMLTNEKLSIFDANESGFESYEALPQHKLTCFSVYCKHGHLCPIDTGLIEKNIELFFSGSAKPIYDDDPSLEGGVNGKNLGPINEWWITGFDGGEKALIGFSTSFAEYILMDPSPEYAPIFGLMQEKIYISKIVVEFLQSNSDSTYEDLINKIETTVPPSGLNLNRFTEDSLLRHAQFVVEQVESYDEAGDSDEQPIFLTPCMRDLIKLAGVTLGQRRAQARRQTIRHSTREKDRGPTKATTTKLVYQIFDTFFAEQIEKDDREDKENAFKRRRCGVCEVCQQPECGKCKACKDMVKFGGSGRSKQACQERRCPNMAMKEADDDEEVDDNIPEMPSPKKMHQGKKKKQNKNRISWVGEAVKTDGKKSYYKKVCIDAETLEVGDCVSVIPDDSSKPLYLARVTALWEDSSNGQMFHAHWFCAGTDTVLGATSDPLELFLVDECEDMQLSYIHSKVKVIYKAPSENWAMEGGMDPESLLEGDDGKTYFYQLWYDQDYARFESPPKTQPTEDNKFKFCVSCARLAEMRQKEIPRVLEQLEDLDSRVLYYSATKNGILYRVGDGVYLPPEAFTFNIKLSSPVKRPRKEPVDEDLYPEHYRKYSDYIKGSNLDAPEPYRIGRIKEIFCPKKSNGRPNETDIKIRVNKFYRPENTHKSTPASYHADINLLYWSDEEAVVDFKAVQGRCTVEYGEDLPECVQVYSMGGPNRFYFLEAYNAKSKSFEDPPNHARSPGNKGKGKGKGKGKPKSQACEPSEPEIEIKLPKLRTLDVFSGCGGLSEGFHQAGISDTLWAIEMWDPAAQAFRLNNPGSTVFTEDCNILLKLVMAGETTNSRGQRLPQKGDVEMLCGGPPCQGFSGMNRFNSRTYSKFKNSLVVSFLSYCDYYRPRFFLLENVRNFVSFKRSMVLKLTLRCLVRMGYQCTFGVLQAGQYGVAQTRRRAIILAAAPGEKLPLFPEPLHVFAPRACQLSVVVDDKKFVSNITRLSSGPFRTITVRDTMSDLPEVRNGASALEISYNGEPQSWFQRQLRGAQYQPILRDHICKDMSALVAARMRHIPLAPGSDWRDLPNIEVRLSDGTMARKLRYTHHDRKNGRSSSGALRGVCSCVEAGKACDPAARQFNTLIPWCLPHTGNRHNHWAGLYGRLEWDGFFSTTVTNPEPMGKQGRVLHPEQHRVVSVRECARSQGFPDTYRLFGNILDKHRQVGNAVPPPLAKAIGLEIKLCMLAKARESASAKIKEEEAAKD

CCN1CC2(COC(=O)c3ccccc3N)CCC(OC)C34C5CC6C(OC)CC(O)(C5C6OC)C(O)(C(OC)C23)C14 (centres undefined)
AC50 [1]: 19.5 µM (active)

Cc1c(-n2cc(C(=O)c3ccccc3O)cc(C#N)c2=O)c(=O)n(-c2ccccc2)n1C
EC50 [2]: > 260 µM (inactive)
EC50 [3]: 8.01 µM (active)
AC50 [1]: 5.89 µM (active)

CC(=O)OCC1=C(C(=O)O)N2C(=O)C(NC(=O)c3ccc(COc4cccc(Cl)c4Cl)o3)C2SC1 (centres undefined)
EC50 [4]: 5.04 µM (active)
IC50 [5]: 5.07 µM (active)
IC50 [6]: 8.67 µM (active)
EC50 (Streptococcus): 8.94 µM (active)
EC50 (Streptokinase A): 12.6 µM (active)

Cc1ccc(C(=O)N/C(=C/c2ccc(-c3ccc([N+](=O)[O-])cc3)o2)C(=O)NCCCN(C)C)cc1
EC50 [7]: > 120 µM (not active)
IC50 (Beta Lactamase): 6.55 µM (active)
EC50 [8]: > 120 µM (not active)
IC50 (Fatty acid synthase [9]): 5.71 µM (active)
EC50 [10]: > 120 µM (not active)
IC50 (Fatty acid synthase [11]): 13.8 µM (active)
IC50 (CHO): 22.9 µM (inactive)

COc1cccc(CSc2nc3ccccc3cc2C=O)c1
EC50 (BJ [12]): 1.17 µM (active)
EC50 [13]: 1.27 µM (active)
EC50 [7]: 13.7 µM (active)
EC50 (BJ [14]): 0.944 µM (inconclusive)
EC50 (BJ [15]): 0.301 µM (active)
EC50 [8]: 16.6 µM (active)
EC50 [10]: 17.7 µM (active)
EC50 (BJ [16]): 21.6 µM (active)
